The record followed here is patent publication US20100292091A1, “MARA FAMILY HELIX-TURN-HELIX DOMAINS AND THEIR METHODS OF USE” (Trustees of Tufts College, priority 1998, published 2010).

The test system of one experiment is E. coli BL21. Description: Antibiotic gradient plate susceptibility of E. coli transformants with plasmids bearing E. coli mar genes. Format: cell-based, Escherichia coli. An excerpt:
PCR oligonucleotide primers were used to prepare a wild-type marA amplicon from E. coli AG100 (A. M. George, et al, J. Bacteriol., 1983, 155:531-540) chromosomal DNA, based on the annotated sequence (S. P. Cohen, et al. J. Bacteriol., 1993, 175:1484-1492). The oligonucleotide primers corresponded with nucleotide positions 1893 to 1910 and 2265 to 2282 and contained terminal EcoRI restriction enzyme sites to allow insertion of marA in frame with the hsp60 mycobacterial heat shock promoter resident on the E. coli-Mycobacterium shuttle plasmid pMV261 (W. R. Jacobs, et al. Microbiol. Immunol., 1990, 155:153-160). […] These mutant marA genes were ligated to pMV261 and pET13a for testing in M. smegmatis and E. coli, respectively. Plasmids were introduced into E. coli and M. smegmatis mc^2155 by electroporation with a Gene Pulser transfection apparatus (Bio-Rad. Richmond, Calif.) and selected on kanamycin (10 or 25 μg/ml).
To obtain support for the notion that the resistance phenotype was a direct result of MarA activity in the cell, insertional mutants targeted to the first helix-turn-helix domain (HTH1) (M. N. Alekshun, et al. Chemother, 41:2067-2075) of the MarA protein were constructed. […] A double-stranded synthetic oligonucleotide with compatible ends was ligated to the NheI sites to produce two distinct insertional mutants interrupting each of the two putative alpha-helical regions (FIG. 1). These mutated genes were cloned into pMV261, as described above, for susceptibility testing in M. smegmatis at 37° C. They were also expressed from the isopropyl-β-D-thiogalactopyranoside (IPTG)-regulated T7 promoter resident on plasmid pET13a for testing in E. coli BL21 (Studier et al. 1990. Methods Enzymol. 185:60). Insertional inactivation of MarA at either helix A or helix B of the first HTH abolished the multidrug resistance phenotype in both E. coli and M. smegmatis the (Table 3 and 4).

Another experiment deals with M. smegmatis mc^2155. The class given is cell-based, Mycobacterium smegmatis.
[1] abbreviates: transformant pEC10 (pET13::marA), same gradients.
[2] abbreviates: transformant pET13a (vector), gradient (µg/ml) CML 2.0, TET 1.0, AMP 3.0, NAL 1.0.

Molecules are shown by their SMILES. Structures can show the parent of a compound that is named as a salt.

Regarding `CC1(C)S[C@@H]2[C@H](NC(=O)[C@H](N)c3ccccc3)C(=O)N2[C@H]1C(=O)O` [AMP, ampicillin], the “% Gowth in antibiotic gradient” value in the experiment with E. coli BL21 (setting [1]) was 11 ± 2.0%; with E. coli BL21 (setting [2]) it was 2 ± 1.1%.

Consider `O=C(N[C@H](CO)[C@H](O)c1ccc([N+](=O)[O-])cc1)C(Cl)Cl` [CML, chloramphenicol], for which, in the experiment on M. smegmatis mc^2155, the “fold increase of resistance in the presence of marA” value (shortened to “fold increase of resistance”) is “two-fold” and the “resistance compared to the microbe with vector alone” value (“resistance compared to the microbe” for short) is listed as “increased resistance”. For the same compound, the “% Gowth in antibiotic gradient” value with E. coli BL21 (setting [1]) is 100%. The “% Gowth in antibiotic gradient” value in the experiment with E. coli BL21 (setting [2]) was found to be 20 ± 1.1%.

On to `CC[C@@H](CO)NCCN[C@@H](CC)CO` [ETM, ethambutol], for which, in the experiment with M. smegmatis mc^2155, the “fold increase of resistance” value stood at 1.5 fold and the “resistance compared to the microbe” value is listed as “increased resistance”.

As to `NNC(=O)c1ccncc1` [INH, isoniazid], in the experiment with M. smegmatis mc^2155, the “fold increase of resistance” value came out at 2.5 fold and the “resistance compared to the microbe” value is “increased resistance”.

On to `CCn1cc(C(=O)O)c(=O)c2ccc(C)nc21` [NAL, nalidixic acid], for which the “change in susceptibility in the presence of marA” value (“change in susceptibility” below) in the experiment with M. smegmatis mc^2155 was “Little if any change in susceptibility”. For the same compound, the “% Gowth in antibiotic gradient” value came out at 100% in the experiment with E. coli BL21 (setting [1]) and 17 ± 0.8% with E. coli BL21 (setting [2]).

For the compound `CCn1cc(C(=O)O)c(=O)c2cc(F)c(N3CCNCC3)cc21` [Nor, norfloxacin], in the experiment on M. smegmatis mc^2155, the “change in susceptibility” value is “some increased susceptibility”.

Consider `CO[C@H]1/C=C/O[C@@]2(C)Oc3c(C)c(O)c4c(O)c(c(/C=N/N5CCN(C)CC5)c(O)c4c3C2=O)NC(=O)/C(C)=C\C=C\[C@H](C)[C@H](O)[C@@H](C)[C@@H](O)[C@@H](C)[C@H](OC(C)=O)[C@@H]1C` [RIF, rifampin], for which, in the experiment with M. smegmatis mc^2155, the “resistance compared to the microbe” value is “Increased resistance” and the “resistance in the presence of vector alone” value is reported as “increased”.

Turning to `CN(C)[C@@H]1C(O)=C(C(N)=O)C(=O)[C@@]2(O)C(O)=C3C(=O)c4c(O)cccc4[C@@](C)(O)[C@H]3C[C@@H]12` [TET, tetracycline], the “% Gowth in antibiotic gradient” value in the experiment on E. coli BL21 (setting [1]) came to 100%; with E. coli BL21 (setting [2]) it was 33 ± 1.0%; in the experiment on E. coli BL21 ({}), 33 ± 1.4%.

Regarding `COS(=O)(=O)[O-].C[n+]1c2ccccc2nc2ccccc21` [phenazine methosulfate], the “change in susceptibility” value with M. smegmatis mc^2155 is recorded as “Little if any change in susceptibility”.

With `C[C@@H]1CN(c2c(F)c(N)c3c(=O)c(C(=O)O)cn(C4CC4)c3c2F)C[C@H](C)N1` [sparfloxacin], in the experiment on M. smegmatis mc^2155, the “change in susceptibility” value is “Little if any change in susceptibility”.

As for `[H]/N=C(/N)N[C@H]1[C@H](O)[C@@H](O)[C@H](O[C@@H]2O[C@@H](C)[C@](O)(C=O)[C@H]2O[C@@H]2O[C@@H](CO)[C@H](O)[C@@H](O)[C@@H]2NC)[C@@H](N/C(N)=N\[H])[C@@H]1O` [streptomycin, streptomycin sulfate], the “change in susceptibility” value with M. smegmatis mc^2155 is on record as “some increased susceptibility”.
